Key:
rat granulosa cells = assay: Cyp19a1 (aromatase) mRNA in primary rat granulosa cells, qPCR relative to Rpl19; assay type: cell-based; conditions: for FSH-stimulation of aromatase (Cyp19a1 mRNA): FSH plus inhibitor vs FSH, 48 hours, rat granulosa cells (rat and mouse)
Experimental: Cyp19a1 mRNA levels were quantified 48 hours later and expressed as relative levels to ribosomal L19 protein (Rp119).
FIG. 5A, Expression of each SIK isoform in rat granulosa cells exposed to scrambled oligos (shSCR) or anti-SIK1 (shSIK1), SIK2 (shSIK2), or SIK3 (shSIK3) shRNAs. *p<0.05, **p<0.01, t-test, n=3. FIG. 5B, Cyp19a1, STARD1, and CYP11a1 relative mRNA expression levels after exposure to shSCR, shSIK1, shSIK2, or shSIK3. […] FIG. 5C, Inverse correlation between SIK2 knockdown with CYP19a1 expression in rat granulosa cells.
(§1) Cyp19a1 mRNA levels were quantified 48 hours later and expressed as relative levels to Rp119. Different letters represent significant differences (mean±SEM, n=5, one-way ANOVA followed by Tukey, p<0.05). FIG. 8B, Immature 23-day-old female mice were injected i.p. with YKL or vehicle (PBS). Two hours later, animals were treated with PMSG or PMSG plus YKL. The expression of CYP19a1, CYP11a1, and STARD1 was quantified 48 hours later. *p<0.05, t-test, n=7.
Rat Granulosa Cells. Rat granulosa cells were isolated from immature rats treated with estradiol for three days. Cells were cultured and treated as described for human granulosa cells. Rat experiments were approved by the Biologic Resources Laboratory (BRL) of the University of Illinois at Chicago.
(§2) mRNA Quantification. Total RNA was isolated at the end of each experiment using TRIzol™ reagent (Invitrogen) according to the manufacturer's protocol. The isolated RNA was reverse-transcribed using anchored oligo-dT primers (IDT, Coralville, Iowa) and Moloney Murine Leukemia Virus reverse transcriptase (Invitrogen) at 37° C. for 1 hour. The resulting cDNA was diluted with water to a final volume of 100 μl and 5 μl of diluted cDNA was used for each qPCR reaction. Gene expression is reported relative to ribosomal protein L19 mRNA (Rp119).

Mouse granulosa cells = assay: Estradiol production by granulosa cells (ELISA); assay type: cell-based; conditions: FSH plus inhibitor, 48 hours
Experimental: Estradiol was determined by ELISA.
Estradiol Measurement. Cell culture medium used for steroid determinations by ELISA (DRG Instruments; RRID: AB_2756386)) following manufacturer's instructions.

[1] = system: primary human granulosa cells; assay: mRNA expression of FSH target genes in primary human granulosa cells; assay type: cell-based
From the text: Different letters represent significant differences (mean±SEM, N≥7, one-way ANOVA followed by Tukey, p<0.05).
Human Granulosa Cells. Human cells were collected from the follicular aspirates of women undergoing in vitro fertilization treatment at the University of Illinois at Chicago Fertility Center, under Institute Review Board approval. Informed consents were obtained from all women. In a subset of patients, additional information was collected to compare the effect of SIK inhibition in patients with different etiologies. Cells were transported immediately to the laboratory where they were dispersed by hyaluronidase digestion (8 IU/μl) and then centrifuged at 500×g for 5 minutes. Cells were incubated at room temperature in red blood cell lysis buffer for 2 minutes to eliminate contaminating erythrocytes. The cells were again centrifuged at 500×g for 5 minutes and suspended in 0.5 ml of serum-free DMEM/F12-0.25% BSA medium containing antibiotics. To investigate mRNA expression, cells were plated at a density of 30000 cells/well in 24-well plates coated with reconstituted basement membrane sold under the tradename Matrigel® (DB Biosciences). To investigate protein expression, cells were plated at a density of 200000 cells/well in 6-well plates coated with reconstituted basement membrane sold under the tradename Matrigel® (DB Biosciences). […] Each data point reflects a result obtained from individual patients. Cells from each patient were cultured separately.
as §2

human granulosa cells = assay: CYP19A1 protein (western blot) in granulosa cells of IVF patients with different etiologies; assay type: cell-based; conditions: patient with anovulation, HG alone or in the presence of FSH
From the text: Primary granulosa cells were obtained from patients with normal ovarian function (left panel) or patients diagnosed with polycystic ovarian syndrome or anovulation (right panel). […] The intensity of the CYP19a1 and BACT bands was quantified, and the data expressed as a ratio between aromatase and BACT. Different letters represent significant differences, one-way ANOVA followed by Tukey test, p<0.05, (n=5).
Human Granulosa Cells. Human cells were collected from the follicular aspirates of women undergoing in vitro fertilization treatment at the University of Illinois at Chicago Fertility Center, under Institute Review Board approval. Informed consents were obtained from all women. […] Cells were transported immediately to the laboratory where they were dispersed by hyaluronidase digestion (8 IU/μl) and then centrifuged at 500×g for 5 minutes. Cells were incubated at room temperature in red blood cell lysis buffer for 2 minutes to eliminate contaminating erythrocytes. The cells were again centrifuged at 500×g for 5 minutes and suspended in 0.5 ml of serum-free DMEM/F12-0.25% BSA medium containing antibiotics. […] To investigate protein expression, cells were plated at a density of 200000 cells/well in 6-well plates coated with reconstituted basement membrane sold under the tradename Matrigel® (DB Biosciences). […] Each data point reflects a result obtained from individual patients. […]

granulosa cells = assay: In vivo treatment of immature mice with SIK inhibitor before PMSG, granulosa cell mRNA; conditions: immature female mice, 10 mg/kg i.p. 2 h before and with PMSG, 48 hours
Experimental: as §1
In vivo Treatment with SIK Inhibitors. […] Controls were injected with 4 IU PMSG alone. granulosa cells were collected 48 hours after PMSG.
as §2

SIK = conditions: in vivo; cited from earlier work

SMILES | FSH-stimulation of aromatase (Cyp19a1 mRNA) (rat granulosa cells) | Cyp19a1 mRNA levels, inhibitor alone (rat granulosa cells; absence of FSH, HG at 1 or 3 μM) | Stimulation of estradiol production by FSH (Mouse granulosa cells) | IGF2 mRNA expression, FSH plus inhibitor vs FSH alone ([1]; 48 hours) | IGF2 mRNA levels, inhibitor alone vs controls ([1]; absence of FSH) | CYP11A1 mRNA levels, inhibitor alone ([1]; no FSH) | STARD1 mRNA levels, inhibitor alone ([1]; no FSH) | CYP19A1 levels (human granulosa cells) | CYP19A1 mRNA levels, increase vs FSH only ([1]; FSH plus inhibitor, n=16 patients, P<0.0001) | CYP19A1 mRNA levels, inhibitor alone ([1]; no FSH) | Cyp11a1 mRNA induction by PMSG (granulosa cells) | Stimulatory effect of PMSG on Cyp19a1 mRNA (granulosa cells) | Stimulatory effect of PMSG on Stard1 mRNA (granulosa cells) | Phosphorylation of a known SIK substrate (SIK)
COc1ccc(N(C(=O)Nc2c(C)cccc2C)c2cc(Nc3ccc(N4CCN(C)CC4)cc3)ncn2)c(OC)c1 [HG-9-91-01] | potentiated FSH-stimulation of aromatase in a concentration-dependent manner | increased Cyp19a1 mRNA levels | potentiated the stimulation of estradiol production by FSH in a dose-dependent manner | tended to be higher | increased IGF2 mRNA levels significantly | enough to increase STARD1 and CYP11A1 mRNA levels | enough to increase STARD1 and CYP11A1 mRNA levels | stimulated CYP19A1 strongly |  |  |  |  |  | 
O=C(NCCCNc1nc(Nc2cccc(CN3CCOCC3)c2)ncc1C1CC1)C1CCC1 [MRT67307] | Comparable findings |  | potentiated the stimulation of estradiol production by FSH in a dose-dependent manner |  |  |  |  |  | 3 fold | did not affect CYP19A1 mRNA levels |  |  |  | 
COc1ccc(N2C(=O)N(c3c(C)cccc3Cl)Cc3cnc(Nc4ccc(C5CCN(C)CC5)cc4OC)nc32)nc1 [YKL-05-099] | enhances the stimulatory effect of FSH on Cyp19a1 mRNA expression in a concentration-dependent manner |  |  |  |  |  |  |  |  |  | only a trend to increase Cyp11a1 mRNA induction | enhanced the stimulatory effect of PMSG on Cyp19a1 and Stard1 significantly | enhanced the stimulatory effect of PMSG on Cyp19a1 and Stard1 significantly | reduces phosphorylation of a known SIK substrate

— patent publication US11690897B2, “Salt inducible kinase inhibitors for enhancing fertility” (The Board of Trustees of the University of Illinois, priority 2019, dated 2023)
